Values quoted from earlier work in patent US20120245201A1, “Isopropylphenidate for Treatment of Attention-Deficit/Hyperactivity Disorder and Fatigue-Related Disorders and Conditions” (priority 2009, published 2012).

What was measured:
[1] = metabolite after MPH; cited from earlier work
mouse model = settings: 5 mg/kg i.p.; cited from earlier work

Compound	blood concentrations relative to the parent compound [1]	motor activity (mouse model)
O=C(O)C(c1ccccc1)C1CCCCN1 (centres unmarked) [RA, ritalinic acid]	30-60 times	–
CCOC(=O)C(c1ccccc1)C1CCCCN1 (stereo not drawn) [d-EPH]	–	significant motor activity
